Source: patent publication US20230255927A1 (ELANCO TIERGESUNDHEIT AG, priority 2022, published 2023)

System: lactating Holstein cows
Assay: Wisconsin Study: dietary monensin fed to lactating cows for 9 weeks
Format: in vivo
Method: Methods: […] All cows received 11 g/ton Rumensin for a 5-week covariate period after which pens received 1 of 4 dietary treatments (n=3) formulated to provide 0 g/ton (Control, “CON”), 11 g/ton (R11), 14.5 g/ton (R14.5), or 18 g/ton (R18) of Rumensin for 9 weeks. Basal diet was 54% forage and 27% Neutral Detergent Fiber (NDF), 29% starch, and 2.3% Rumen Unsaturated Fatty Acid Load (RUFAL). The pen was the experimental unit, and data were analyzed using the Fit Model Procedure of JMP with treatment as a fixed effect and pen as a random effect. LS-means were determined and contrasts of CON vs. R11, CON vs. R14.5, CON vs. R18, and linear and quadratic effects were tested.

[1] = all treatments, not affected by treatment

## CC[C@@]1([C@@H]2O[C@@H]([C@H]3O[C@@](O)(CO)[C@H](C)C[C@@H]3C)C[C@@H]2C)CC[C@H]([C@]2(C)CC[C@]3(C[C@H](O)[C@@H](C)[C@@H]([C@@H](C)[C@@H](OC)[C@H](C)C(=O)O)O3)O2)O1 [monensin]
R11, 11 g/ton
  DMI: 60 lb/d
  De novo fatty acid yield: 0.99 g/100 g milk
  ECM: 106 lb/d
  Estimated Dietary Energy: 1.70 Mcal/kg DM
  Milk Fat: 4.13%
  Milk Yield: 98 lb/d
  Protein: 3.16%
R11, 11 g/ton, P=0.04
  Milk fat yield increase vs. CON: 0.08 kg/day
R11, 11 g/ton, P=0.05
  ECM/DMI increase vs. CON: 2.9%
R11, 11 g/ton, P=0.09
  ECM increase vs CON: 1.3 kg/day
R14.5, 14.5 g/ton
  DMI: 60 lb/d
  ECM: 105 lb/d
  Estimated Dietary Energy: 1.71 Mcal/kg DM
  Milk Fat: 4.04%
  Milk Yield: 99 lb/d
  Protein: 3.14%
R14.5, 14.5 g/ton, P=0.02
  ECM/DMI increase vs. CON: 3.5%
R18, 18 g/ton
  DMI: 58 lb/d
  ECM: 102 lb/d
  Estimated Dietary Energy: 1.73 Mcal/kg DM
  Milk Fat: 3.97%
  Milk Yield: 97 lb/d
  Protein: 3.14%
R18, 18 g/ton, P=0.01
  Estimated dietary energy increase vs. CON: 3.0%
R18, 18 g/ton, P=0.09
  ECM/DMI increase vs. CON: 2.3%
R18, 18 g/ton, listed as Rumensin
  DMI: 26.4 kg/day
[1]
  Milk Yield: 44 kg/day
  Milk fat percentage: 4.0%
  Milk protein percentage: 3.2%
  Milk protein yield: 1.4 kg/day
